# Results: patent US12617818B2, “Compositions and methods for modulating myosin subfragment-2 coiled coil stability and methods for using them” (UNIVERSITY OF NORTH TEXAS, priority 2020, dated 2026)
# Legend:
# [1] = target: skeletal muscle myosin S2 peptide (MYH2) (Homo sapiens, UniProt Q9UKX2); test: GFS, uncoiling of skeletal myosin S2 peptide dimer; type: biochemical; design: host or cells: chemical synthesis; conditions: for Force required to uncoil S2 molecule: length 10 nm, in presence of the anti-S2 peptide, ± SEM
# Chain of skeletal muscle myosin S2 peptide (MYH2) (Q9UKX2 918-953 limits assumed): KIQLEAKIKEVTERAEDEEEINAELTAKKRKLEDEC
# Excerpt: (§1) 3-aminopropyltriethoxysilane, acetone, coupling buffer (0.01 M pyridine in water with pH 6.0), 5% glutaraldehyde, quenching solution (1 M glycine in water with pH 7.0), blocking buffer (0.01 M Tris, 0.1% sodium azide, 0.1% bovine serum albumin, 0.15 M sodium chloride, and 0.001 M ethylenediaminetetraacetic acid with pH 7.0), wash buffer (0.01 M Tris, 0.1% sodium azide, 0.15 M sodium chloride, and 0.001 M ethylenediaminetetraacetic acid with pH 7.0) low salt buffer (0.1 M potassium chloride, 0.02 M imidazole, 5 mM magnesium chloride, with pH 7.0), 1-ethyl-3-(3-dimethyaminopropyl) carbodiimide, N-hydroxysuccinamide, iodoacetamide-succinimidyl ester, 8M urea solution (50 mM imidazole and 0.1 mM tris (2-carboxyethyl) phosphine with pH 7.0) monodisperse silica beads, glass slides, glass coverslips, vacuum grease, rabbit skeletal myosin, purified actin (G-actin), 1 μM human β-cardiac myosin S2 peptide, 1 μM human β-cardiac mutants myosin S2 peptide (E930del and E924K), 1 μM human skeletal myosin S2 peptide, 1 μM human smooth myosin S2 peptide, stabilizer peptide, and destabilizer peptide. A light microscope with an objective lens of 10× was mounted on an alt-azimuthal mount. A digital video camera of Sony, XCD-V60 was replaced with the ocular lenses. Extension springs on steel bracket held the alt-azimuthal mount suspended.
# (§2) Gravitational force spectroscopy (GFS), is a single molecule force spectroscopy that utilizes gravitational force to measure absolute length of a single molecule at the given force calculated by the density of the bead suspending the molecule. This technique was discovered and developed in Root lab, which measures the forces in piconewton and sub-piconewton levels. Other than absolute length of a molecule, GFS measures force range required to uncoil, stretch or extend the molecule yielding a force-distance profile for the suspended molecule. Besides that, based on the force-distance profile, number of amino acids within the molecule can be calculated. […] The GFS allowed to test the flexibility or stability of a single molecule of myosin S2 peptide and also for the S2 peptides treated with anti-S2 peptides. Flexibility of myosin S2 is not dependent on assembly myosin as a thick filament or myosin in its single molecule form. The flexibility of myosin S2 region was reported to be similar in single molecule form or myosin in a thick filament assembly thus it could be conceived that the changes seen on flexibility of myosin S2 in presence of anti-S2 peptides would correlate to changes in myosin S2 flexibility for myosin in a thick filament form (Singh et al., 2018). The schematic diagram of GFS is shown below (schematic diagrams of GFS which has two modes: (FIG. 15) free-fall mode, (FIG. 16) rotational mode.
# Free fall mode, another measurement variant of GFS which allows the user to get a force distance profile on a single molecule experiencing the gravitational force. Free fall mode allows a variable force by the virtue of gravity to be exerted on a single molecule. The GFS setup, light microscope with mounted camera on spring on alt-azimuthal platform, can be dropped. The start of free-fall mode force applied to the bead is zero or close to zero. […] As the platform goes towards equilibrium, trace of the acceleration decays. During the free fall mode, GFS has a single molecule which is suspended within an immobile edge and mobile bead will now experience the variable force which would be calculated by the product of mass of the bead and the acceleration of the GFS.
# The product of the GFS acceleration and the mass of the bead will provide a force trace for the single molecule tethered between the immobile edge and mobile bead. The image processing would provide distance trace for the single molecule experiencing the free fall by the GFS. When this force trace is aligned with distance trace will yield the extension or the stretch experience by the single molecule under variable forces. […]
# [2] = target: T1, cardiac muscle myosin S2 peptide (MYH7) (Homo sapiens, UniProt P12883); test: Gravitational force spectroscopy (GFS), uncoiling of cardiac myosin S2 peptide dimer; type: biochemical; conditions: for Force required to uncoil S2 molecule: length 10 nm, in presence of the anti-S2 peptide, ± SEM
# T1 construct: host or cells: chemical synthesis
# T1 sequence (P12883 912-947 limits assumed): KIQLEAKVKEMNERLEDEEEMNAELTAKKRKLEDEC
# Excerpt: as §1, §2
# GFS set up assembly contains a light microscope that is horizontally mounted on an alt-azimuthal which is suspended with help of extension springs on a steel bracket. To capture both images and videos of suspended molecule, a digital video camera has been placed instead of the ocular lenses. The molecule of interest is tethered between an immobile edge of glass coverslip placed on a glass slide and mobile silica or glass bead. Slide with the molecule of interest in inserted into the light microscope component of GFS. The bead with molecule of interest is imaged through the microscope and then oriented to the direction of gravity vector to allow the maximal gravitation force exerted on to the bead. GFS has two modes, one is called rotational mode or an equilibrium mode which measures the absolute length of a single molecule and the second one is called free fall mode which measures the force required to unwind, uncoil, stretch or extend the molecule of interest.
# Free fall mode, another measurement variant of GFS which allows the user to get a force distance profile on a single molecule experiencing the gravitational force. […]
smiles,measurement,setting,value
CSCC[C@H](NC(=O)[C@H](CCC(=O)O)NC(=O)[C@H](CCCNC(=N)N)NC(=O)[C@H](CCC(=O)O)NC(=O)[C@H](CC(=O)O)NC(=O)[C@H](CCC(=O)O)NC(=O)[C@H](CC(C)C)NC(=O)[C@H](CCCNC(=N)N)NC(=O)[C@H](CCC(=O)O)NC(=O)[C@H](CC(N)=O)NC(=O)[C@H](CCSC)NC(=O)[C@@H](N)CCC(=O)O)C(=O)N[C@@H](CCCCN)C(=O)N[C@@H](C)C(=O)N[C@@H](CCC(=O)O)C(=O)N[C@@H](CC(C)C)C(=O)N[C@H](C(=O)N[C@@H](C)C(=O)N[C@@H](CCCCN)C(=O)O)[C@@H](C)O [Destabilizer],Force required to uncoil S2 molecule,[1],1.84E−01 ± 4.00E−02 pN
same,Force required to uncoil S2 molecule,[1]; listed as destabilizer peptide,1.84×10^−1±4.00×10^−2 pN
same,decrease of force required to uncoil the coiled coil,[1]; vs absence of anti-S2 peptide,2.45 times
same,Force required to uncoil S2 molecule,[2],4.36E−01 ± 3.30E−02 pN
same,Force required to uncoil S2 molecule,[2]; listed as destabilizer,4.36×10^−1±3.30×10^−2 pN
same,decrease of force required to uncoil the coiled coil,[2]; vs absence of anti-S2 peptide,1.98 times
C[C@H](NC(=O)[C@H](CCCCN)NC(=O)[C@H](Cc1ccccc1)NC(=O)[C@H](CCCCN)NC(=O)[C@H](CCCCN)NC(=O)[C@H](CCCCN)NC(=O)[C@H](CCCCN)NC(=O)[C@H](CCCCN)NC(=O)[C@H](CCCCN)NC(=O)[C@H](CCCCN)NC(=O)[C@@H](N)CCCCN)C(=O)N[C@@H](CCCCN)C(=O)N[C@@H](CCCCN)C(=O)N[C@@H](CCCCN)C(=O)N[C@@H](CCCCN)C(=O)N[C@@H](CCCCN)C(=O)N[C@@H](CCCCN)C(=O)O [Stabilizer],Force required to uncoil S2 molecule,[1],6.28E−01 ± 4.32E−02 pN
same,increase of force required to uncoil the coiled coil,[1]; vs absence of anti-S2 peptide,1.40 times
same,Force required to uncoil S2 molecule,[2],1.55E+00 ± 1.46E−01 pN
same,Force required to uncoil S2 molecule,[2]; listed as stabilizer,1.55±1.46×10^−1 pN
same,increase of force required to uncoil the coiled coil,[2]; vs absence of anti-S2 peptide,1.80 times
